IC50 data for 22 compounds are collected here from US12473304B2, “Heterocyclic PAD4 inhibitors” (BRISTOL-MYERS SQUIBB COMPANY, priority 2020, dated 2025).

Molecules are shown by their SMILES.

As a reminder, the IC50 is the concentration that inhibits the measured activity by half.

This test concerns the target human PAD4 (hPAD4) (Homo sapiens (Human), UniProt Q9UM07). The experiment in a line: RFMS Human PAD4 Functional Assay 1. It counts as biochemical. As to conditions: RFMS assay 1; 5 nM hPAD4, 250 μM BAEE substrate, 50 μM calcium, 37° C. In a few lines:
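Citrullination product read by RapidFire triple-quad MRM against a modified-citrulline internal standard, after TCA stop and 30 min phenyl glyoxal step at 37 °C. Reaction: 250 μM BAEE, 5 nM human PAD4, 90 min at 37 °C, pH 7.5 HEPES buffer with 50 μM calcium and 5 μM TPEN, following 30 min compound–enzyme preincubation (max 50 μM).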

Sequence of human PAD4 (hPAD4) (Q9UM07 whole entry): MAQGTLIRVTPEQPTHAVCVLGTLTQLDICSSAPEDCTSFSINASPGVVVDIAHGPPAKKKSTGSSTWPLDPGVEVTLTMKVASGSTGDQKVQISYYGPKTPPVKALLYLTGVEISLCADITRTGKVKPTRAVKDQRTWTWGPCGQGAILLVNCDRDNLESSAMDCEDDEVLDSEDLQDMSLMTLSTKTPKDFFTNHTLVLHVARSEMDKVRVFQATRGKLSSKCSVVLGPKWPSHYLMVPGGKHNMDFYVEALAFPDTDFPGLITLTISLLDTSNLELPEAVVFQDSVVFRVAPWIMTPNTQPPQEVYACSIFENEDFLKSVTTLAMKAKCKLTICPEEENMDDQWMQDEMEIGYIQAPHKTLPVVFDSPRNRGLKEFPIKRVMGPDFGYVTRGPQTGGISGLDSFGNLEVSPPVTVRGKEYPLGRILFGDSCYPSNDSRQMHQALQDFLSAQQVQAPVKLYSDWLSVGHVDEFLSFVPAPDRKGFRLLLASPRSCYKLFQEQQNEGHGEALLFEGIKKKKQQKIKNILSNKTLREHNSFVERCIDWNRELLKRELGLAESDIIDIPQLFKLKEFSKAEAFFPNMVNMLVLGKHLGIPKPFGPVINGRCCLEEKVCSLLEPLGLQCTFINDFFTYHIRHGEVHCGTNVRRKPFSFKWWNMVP

`Cc1c(-c2cc3cccc(C4CCN(C(=O)CO)CC4)c3n2CC2CC2)nn2cc(C(=O)N3CCC[C@@H](N)C3)ccc12` [Example 439, (R)-1-(4-(2-(6-(3-aminopiperidine-1-carbonyl)-3-methylpyrazolo[1,5-a]pyridin-2-yl)-1-(cyclopropylmethyl)-1H-indol-7-yl)piperidin-1-yl)-2-hydroxyethan-1-one]: the IC50 was 30 nM.

Consider `CO[C@@H](C)C(=O)N1CC(c2cccc3cc(-c4nn5cc(C(=O)N6CCC[C@@H](N)C6)ccc5c4C)n(CC4CC4)c23)C1` [Example 543, (S)-1-(3-(2-(6-((R)-3-aminopiperidine-1-carbonyl)-3-methylpyrazolo[1,5-a]pyridin-2-yl)-1-(cyclopropylmethyl)-1H-indol-7-yl)azetidin-1-yl)-2-methoxypropan-1-one], for which the IC50 was 630 nM.

Consider `Cc1c(-c2cc3ccc(C(C)(C)O)nc3n2CC2CC2)nn2cc(C(=O)N3C[C@H](N)C[C@@H](F)C3)ccc12` [Example 105, ((3R,5R)-3-Amino-5-fluoropiperidin-1-yl)(2-(1-(cyclopropylmethyl)-6-(2-hydroxypropan-2-yl)-1H-pyrrolo[2,3-b]pyridin-2-yl)-3-methylpyrazolo[1,5-a]pyridin-6-yl)methanone], for which the IC50 was found to be 107 nM.

With `COc1cc(C(=O)N2C[C@H](N)C[C@@H](F)C2)cn2nc(-c3cc4ccc(-c5ccc6c(c5)C(=O)NC6)cc4n3CC3CC3)c(C)c12` [Example 29, 6-(2-(6-((3R,5R)-3-Amino-5-fluoropiperidine-1-carbonyl)-4-methoxy-3-methylpyrazolo[1,5-a]pyridin-2-yl)-1-(cyclopropylmethyl)-1H-indol-6-yl)isoindolin-1-one], the IC50 is 1020 nM.

Take `Cc1c(-c2cc3cccc(C4CN(C(=O)[C@@H]5CCC[C@H](O)C5)C4)c3n2CC2CC2)nn2cc(C(=O)N3C[C@H](N)C[C@@H](F)C3)ccc12` [Example 531, ((3R,5R)-3-Amino-5-fluoropiperidin-1-yl)(2-(1-(cyclopropylmethyl)-7-(1-((1R,3S)-3-hydroxycyclohexane-1-carbonyl)azetidin-3-yl)-1H-indol-2-yl)-3-methylpyrazolo[1,5-a]pyridin-6-yl)methanone]: the IC50 is 580 nM.

On to `COCC(=O)N1CC(c2cccc3cc(-c4nn5cc(C(=O)N6CCC[C@@H](N)C6)ccc5c4C)n(CC4CC4)c23)C1` [Example 546, (R)-1-(3-(2-(6-(3-Aminopiperidine-1-carbonyl)-3-methylpyrazolo[1,5-a]pyridin-2-yl)-1-(cyclopropylmethyl)-1H-indol-7-yl)azetidin-1-yl)-2-methoxyethan-1-one], for which the IC50 worked out at 560 nM.

`Cc1c(-c2cc3ccc(N4CC(F)(CO)C4)cc3n2CC2CC2)nn2cc(C(=O)N3CC4CCC3[C@@H]4N)ccc12` (stereo partly drawn) [Example 91, ((7R)-7-Amino-2-azabicyclo[2.2.1]heptan-2-yl)(2-(1-(cyclopropylmethyl)-6-(3-fluoro-3-(hydroxymethyl)azetidin-1-yl)-1H-indol-2-yl)-3-methylpyrazolo[1,5-a]pyridin-6-yl)methanone]: the concentration for half-maximal inhibition (IC50) came to 602 nM.

For `Cc1c(-c2cc3cccc(C4CCN(C(=O)c5cccs5)CC4)c3n2CC2CC2)nn2cc(C(=O)N3CC4CCC3[C@@H]4N)ccc12` (stereo partly drawn) [Example 475, (4-(2-(6-((7R)-7-Amino-2-azabicyclo[2.2.1]heptane-2-carbonyl)-3-methylpyrazolo[1,5-a]pyridin-2-yl)-1-(cyclopropylmethyl)-1H-indol-7-yl)piperidin-1-yl)(thiophen-2-yl)methanone], the IC50 turned out to be 20 nM.

On to `COc1cc(C(=O)N2C[C@H](N)C[C@@H](F)C2)cn2nc(-c3cc4ccc(C(C)(O)C(F)(F)F)cc4n3CC3CC3)c(C)c12` (stereo partly drawn) [Example 99, ((3R,5R)-3-Amino-5-fluoropiperidin-1-yl)(2-(1-(cyclopropylmethyl)-6-(1,1,1-trifluoro-2-hydroxypropan-2-yl)-1H-indol-2-yl)-4-methoxy-3-methylpyrazolo[1,5-a]pyridin-6-yl)methanone], for which the IC50 worked out at 307 nM.

`Cc1c(-c2cc3cccc(C4CCN(C(=O)C5CC(O)C5)CC4)c3n2CC2CC2)nn2cc(C(=O)N3C[C@H](N)C[C@@H](F)C3)ccc12` (mixture of isomers) [Example 466, ((3R,5R)-3-amino-5-fluoropiperidin-1-yl)(2-(1-(cyclopropylmethyl)-7-(1-(3-hydroxycyclobutane-1-carbonyl)piperidin-4-yl)-1H-indol-2-yl)-3-methylpyrazolo[1,5-a]pyridin-6-yl)methanone]: the IC50 amounted to 190 nM.

Regarding `Cc1c(-c2cc3cccc(C4CN(C(=O)[C@H]5CC[C@H](O)CC5)C4)c3n2CC2CC2)nn2cc(C(=O)N3C[C@H](N)C[C@@H](F)C3)ccc12` [Example 537, ((3R,5R)-3-Amino-5-fluoropiperidin-1-yl)(2-(1-(cyclopropylmethyl)-7-(1-((1r,4r)-4-hydroxycyclohexane-1-carbonyl)azetidin-3-yl)-1H-indol-2-yl)-3-methylpyrazolo[1,5-a]pyridin-6-yl)methanone], the IC50 stood at 70 nM.

In the case of `COc1cc(C(=O)N2CCC[C@@H](N)C2)cn2nc(-c3cc4ccc(N5CCC(N(C)C(C)=O)CC5)cc4n3CC3CC3)c(C)c12` [Example 253, N-[1-(2-{6-[(3R)-3-Aminopiperidine-1-carbonyl]-4-methoxy-3-methylpyrazolo[1,5-a]pyridin-2-yl}-1-(cyclopropylmethyl)-1H-indol-6-yl)piperidin-4-yl]-N-methylacetamide], the IC50 worked out at 290 nM.

As to `COc1cc(C(=O)N2CCC[C@@H](N)C2)cn2nc(-c3cc4cccc(C5CN(C(=O)C(C)(C)OC)C5)c4n3CC3CC3)c(C)c12` [Example 516, (R)-1-(3-(2-(6-(3-Aminopiperidine-1-carbonyl)-4-methoxy-3-methylpyrazolo[1,5-a]pyridin-2-yl)-1-(cyclopropylmethyl)-1H-indol-7-yl)azetidin-1-yl)-2-methoxy-2-methylpropan-1-one], the IC50 was 1040 nM.

Take `COc1cc(C(=O)N2C[C@H](N)C[C@@H](F)C2)cn2nc(-c3cc4ccc(-c5cccc(O)c5F)cc4n3CC3CC3)c(C)c12` [Example 32, ((3R,5R)-3-Amino-5-fluoropiperidin-1-yl)(2-(1-(cyclopropylmethyl)-6-(2-fluoro-3-hydroxyphenyl)-1H-indol-2-yl)-4-methoxy-3-methylpyrazolo[1,5-a]pyridin-6-yl)methanone]: the IC50 was 414 nM.

For the compound `COc1cc(C(=O)N2CCC[C@@H](N)C2)cn2nc(-c3cc4ccc(-c5ccc(C(N)=O)cc5)cc4n3CC3CC3)c(C)c12` [Example 229, 4-(2-{6-[(3R)-3-Aminopiperidine-1-carbonyl]-4-methoxy-3-methylpyrazolo[1,5-a]pyridin-2-yl}-1-(cyclopropylmethyl)-1H-indol-6-yl)benzamide], the IC50 was 130 nM.

Consider `COc1cc(C(=O)N2CC3CCC2[C@@H]3N)cc2sc(-c3cc4ccc(-c5ccc(O)c(F)c5)nc4n3CC3CC3)c(C)c12` (stereo partly drawn) [Example 136, ((7R)-7-Amino-2-azabicyclo[2.2.1]heptan-2-yl)(2-(1-(cyclopropylmethyl)-6-(3-fluoro-4-hydroxyphenyl)-1H-pyrrolo[2,3-b]pyridin-2-yl)-4-methoxy-3-methylbenzo[b]thiophen-6-yl)methanone], for which the IC50 turned out to be 705 nM.

Turning to `Cc1c(-c2cc3cc(F)cc(C4CCN(C(=O)[C@H]5CC[C@H](O)CC5)CC4)c3n2CC2CC2)nn2cc(C(=O)N3C[C@H](N)C[C@@H](F)C3)ccc12` [Example 487, ((3R,5R)-3-Amino-5-fluoropiperidin-1-yl)(2-(1-(cyclopropylmethyl)-5-fluoro-7-(1-((1r,4r)-4-hydroxycyclohexane-1-carbonyl)piperidin-4-yl)-1H-indol-2-yl)-3-methylpyrazolo[1,5-a]pyridin-6-yl)methanone], the IC50 came out at 200 nM.

In the case of `COCC(=O)N1CCC(c2cccc3cc(-c4nn5cc(C(=O)N6CC7CCC6[C@@H]7N)ccc5c4C)n(CC4CC4)c23)CC1` (stereo partly drawn) [Example 453, 1-(4-(2-(6-((7R)-7-amino-2-azabicyclo[2.2.1]heptane-2-carbonyl)-3-methylpyrazolo[1,5-a]pyridin-2-yl)-1-(cyclopropylmethyl)-1H-indol-7-yl)piperidin-1-yl)-2-methoxyethan-1-one], the IC50 is 10 nM.

With `Cc1c(-c2cc3ccc(N4CCC(N5CCCC5=O)CC4)nc3n2CC2CC2)nn2cc(C(=O)N3CCC[C@@H](N)C3)cc(F)c12` [Example 273, 1-[1-(2-{6-[(3R)-3-Aminopiperidine-1-carbonyl]-4-fluoro-3-methylpyrazolo[1,5-a]pyridin-2-yl}-1-(cyclopropylmethyl)-1H-pyrrolo[2,3-b]pyridin-6-yl)piperidin-4-yl]pyrrolidin-2-one], the IC50 came out at 2420 nM.

With `Cc1c(-c2cc3cccc(C4CCN(C(=O)[C@H]5CC[C@@H](O)CC5)CC4)c3n2CC2CC2)nn2cc(C(=O)N3CCC[C@@H](N)C3)ccc12` [Example 450, ((R)-3-aminopiperidin-1-yl)(2-(1-(cyclopropylmethyl)-7-(1-((2s,4s)-4-hydroxycyclohexane-1-carbonyl)piperidin-4-yl)-1H-indol-2-yl)-3-methylpyrazolo[1,5-a]pyridin-6-yl)methanone], the IC50 came to 50 nM.

`COc1cc(C(=O)N2C[C@H](N)C[C@@H](F)C2)cn2nc(-c3cc4ccc(C5CC5)nc4n3CC3CC3)c(C)c12` [Example 19, ((3R,5R)-3-Amino-5-fluoropiperidin-1-yl)(2-(6-cyclopropyl-1-(cyclopropylmethyl)-1H-pyrrolo[2,3-b]pyridin-2-yl)-4-methoxy-3-methylpyrazolo[1,5-a]pyridin-6-yl)methanone]: the half-maximal inhibitory concentration (IC50) was determined as 168 nM.

`COC(=O)N(C)C1CCN(c2ccc3cc(-c4nn5cc(C(=O)N6C[C@H](N)C[C@@H](F)C6)cc(OC)c5c4C)n(CC4CC4)c3c2)CC1` [Example 245, Methyl N-[1-(2-{6-[(3R,5R)-3-amino-5-fluoropiperidine-1-carbonyl]-4-methoxy-3-methylpyrazolo[1,5-a]pyridin-2-yl}-1-(cyclopropylmethyl)-1H-indol-6-yl)piperidin-4-yl]-N-methylcarbamate]: the concentration for half-maximal inhibition (IC50) came out at 70 nM.
